In patent publication US6825209B2, “Compounds having unique CB1 receptor binding selectivity and methods for their production and use” (Research Triangle Institute, priority 2002, dated 2004):
Read-outs that look alike come from different tables or passages of the source.

Legend:
[1] = biological target: T1, G-protein-linked cannabinoid receptors (Rattus norvegicus, UniProt P20272); assay: GTP-γ-[35S] binding in whole rat brain; assay type: biochemical; details: for Emax: read-out: Emax, GTP-γ-[35S] in Whole Rat Brain
T1 construct: tissue Charles River or Pel-Freez Biologicals; host or cells: whole rat brain crude membrane homogenate
T1 sequence (P20272 whole entry): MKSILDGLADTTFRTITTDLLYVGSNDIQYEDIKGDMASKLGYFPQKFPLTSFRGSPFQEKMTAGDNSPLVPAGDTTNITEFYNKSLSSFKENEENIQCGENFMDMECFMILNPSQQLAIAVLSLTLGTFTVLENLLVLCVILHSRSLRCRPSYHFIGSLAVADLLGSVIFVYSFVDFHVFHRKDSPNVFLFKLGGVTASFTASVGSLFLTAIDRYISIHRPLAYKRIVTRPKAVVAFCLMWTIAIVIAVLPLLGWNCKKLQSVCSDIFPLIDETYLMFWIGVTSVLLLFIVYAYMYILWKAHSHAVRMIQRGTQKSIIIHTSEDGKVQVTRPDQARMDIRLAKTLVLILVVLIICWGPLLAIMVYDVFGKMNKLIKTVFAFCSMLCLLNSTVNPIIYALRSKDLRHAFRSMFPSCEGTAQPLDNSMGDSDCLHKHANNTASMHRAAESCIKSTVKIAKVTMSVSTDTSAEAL
Description: Cannabinoid receptor-mediated alteration in GTP-γ-[^35S] binding.
Introduction. The purpose of this assay was to characterize the functional activity of lead compounds identified by the radioligand competition binding assays described above. Data from the GTP-γ-[^35S] binding assay was used to determine if a compound was an agonist, antagonist or inverse agonist at G-protein-linked cannabinoid receptors. Agonist binding to a G-protein-linked receptor results in an increased affinity of the G-protein α-subunit for GTP relative to GDP. Eventually, an active αGTP complex forms to complete the stimulus-effector coupling. The α-subunit has intrinsic GTPase activity which generates a free α-subunit which can recombine with the β- and γ-subunits readying the G-protein for another signal transduction cycle. In the current assay, GTP-γ-[^35S] cannot be hydrolyzed by the α-subunit. Thus, the amount of bound GTP-γ-[^35S] is a marker for G-protein activation. In this assay, an agonist increases basal GTP-γ-[^35S] binding, an inverse agonist decreases basal binding and basal binding would be unaffected by an antagonist.
Experimental Design. The specific binding of GTP-γ-[^35S], in the absence of test compound, was termed “basal” activity. Test compounds were characterized as agonist, antagonist, or inverse agonist based on their effect on basal activity. […] The concentrations spanned two orders of magnitude because affinity may not be related to efficacy. […] Effects of the test compounds are reported as the percent change from basal. More thorough dose-response analysis may be run to determine, for example, if a compound is a full or partial agonist.
Methods. […] In a final volume of 0.5 mL, each assay tube contained: 0.02 mg crude membrane homogenate (0.1 mL), 200 μM GDP (0.05 mL; to reduce basal G-protein activity), 0.1 nM GTP-γ-[^35S] (0.05 mL) and several concentrations of test compound (0.05 mL) or an equivalent volume of vehicle (used for determination of total binding). Nonspecific binding was determined in the presence of 100 μM unlabeled GTP-γ-S (0.05 mL). Duplicate samples were incubated for 1 h at 30° C. Since this assay is amenable for use with high throughput screening methods, the binding assays were run using a 96-well plate format. Specific binding was calculated as total binding-nonspecific binding.

CB1 receptor = biological target: T2, CB1 receptor (Rattus norvegicus, UniProt P20272); assay: Radioligand displacement in whole rat brain (CB1) membrane preparations; assay type: binding
T2 construct: Whole rat brains or dissected regions from live CD rats; tissue Charles River or Pel-Freez Biologicals; host or cells: whole rat brain (CD rats), P2 membrane
T2 sequence (P20272 whole entry): as above
In short: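 Washed P2 membranes from whole rat brain (ca. 0.2 mg/mL) in 50 mM Tris.HCl, 1 mM EDTA, 3 mM MgCl2, pH 7.4 were incubated with radioligand and compound for 1 h at 30 °C, then filtered. IC50 values came from one- or two-site nonlinear fits and were converted to Ki by Cheng-Prusoff. Duplicates were run across 3–6 experiments.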

human CB2 receptor = biological target: T3, human CB2 receptor (Homo sapiens, UniProt P34972); assay: Displacement of 3H-CP55,940 in human CB2 receptor-transfected cells (CHO-K1); assay type: binding; details: radioligand 3H-CP55940, Tables 6 and 7
T3 construct: expressed in transfected cells; host or cells: CHO-K1
T3 sequence (P34972 whole entry): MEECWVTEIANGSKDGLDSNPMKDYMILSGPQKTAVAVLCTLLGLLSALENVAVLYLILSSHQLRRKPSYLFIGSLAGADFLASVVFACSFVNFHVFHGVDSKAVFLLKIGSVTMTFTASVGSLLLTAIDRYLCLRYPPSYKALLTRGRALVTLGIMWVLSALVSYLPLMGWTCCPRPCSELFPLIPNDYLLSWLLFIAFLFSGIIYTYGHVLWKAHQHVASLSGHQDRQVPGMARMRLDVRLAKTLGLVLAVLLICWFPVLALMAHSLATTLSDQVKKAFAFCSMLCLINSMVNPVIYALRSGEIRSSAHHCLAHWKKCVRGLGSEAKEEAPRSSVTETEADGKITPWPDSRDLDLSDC
Procedure: Human CB2 receptor affinity. The relative selectivity of the analogs for CB1 versus CB2 receptors varied modestly regardless of the structural modifications examined to date.
Methods—binding assay in transfected cell lines. The methods used for performing binding assays in transfected cells expressing human CB1 or CB2 receptors are those used above. The CB1 receptor involved a HEK-293 expression system whereas the CB2 receptor was expressed in CHO-K1 cells. […] The incubations and separations were then performed as described above for rat brain membrane preparations.
Data analysis. Saturation and displacement data were analyzed by unweighted nonlinear regression of receptor binding data. For displacement studies, curve-fitting and IC50 calculation were done with GraphPad Prism (GraphPad Software, Inc., San Diego, Calif.), which fits the data to one and two-site models and compares the two fits statistically. A similar approach was used for the analysis of isotherm data for calculation of Kd's. A two-site fit was accepted only if it was statistically significant (p<0.05) and the following results were not observed:
IC50 values were then converted to Ki values by reported methods (Cheng and Prusoff, 1973). The statistical evaluation of curve-fitting data allowed for a non-arbitrary conclusion based on the displacement data.

human CB1 receptor = biological target: T4, human CB1 receptor (Homo sapiens, UniProt P21554); assay: Radioligand displacement in human CB1 receptor-transfected cells (HEK-293); assay type: binding
T4 construct: expressed in transfected cells; host or cells: HEK-293
T4 sequence (P21554 whole entry): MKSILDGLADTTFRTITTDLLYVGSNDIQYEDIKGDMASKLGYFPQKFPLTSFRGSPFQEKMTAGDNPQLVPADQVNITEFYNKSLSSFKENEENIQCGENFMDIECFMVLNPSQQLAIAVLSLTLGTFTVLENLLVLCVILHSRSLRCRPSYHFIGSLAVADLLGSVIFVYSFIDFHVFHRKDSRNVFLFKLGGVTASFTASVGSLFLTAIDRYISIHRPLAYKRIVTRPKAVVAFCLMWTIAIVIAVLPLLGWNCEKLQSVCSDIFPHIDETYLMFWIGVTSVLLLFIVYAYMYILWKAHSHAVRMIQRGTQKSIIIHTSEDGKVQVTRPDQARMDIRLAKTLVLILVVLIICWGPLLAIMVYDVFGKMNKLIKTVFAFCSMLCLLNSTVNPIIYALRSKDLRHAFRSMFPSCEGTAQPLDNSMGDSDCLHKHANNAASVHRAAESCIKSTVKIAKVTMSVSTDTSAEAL
In short: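 Radioligand displacement was run on HEK-293 cells expressing human CB1, with incubation and separation as for rat brain membranes. IC50 values came from one- or two-site nonlinear regression and were converted to Ki by Cheng-Prusoff.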

[2] = whole rat brain membranes, effects reported as percent change from basal
[3] = whole rat brain membranes, inverse agonist/antagonist activity, read-out: EC50, GTP-γ-[35S] in Whole Rat Brain
[4] = Ki, displacement of 3H-SR141716A, whole rat brain membranes, radioligand 3H-SR141716A, Tables 1 and 2
[5] = whole rat brain membranes, radioligand 3H-SR141716A, Tables 1 and 2
[6] = Ki, displacement of 3H-CP55940, human CB2 transfected cells
[7] = read-out: Ki, displacement of 3H-CP55940, whole rat brain membranes, radioligand 3H-CP55940, Tables 1 and 2
[8] = whole rat brain membranes, radioligand 3H-CP55940, Tables 1 and 2
[9] = read-out: Ki, displacement of 3H-SR141716A, whole rat brain membranes, radioligand 3H-SR141716A, Tables 1 and 2
[10] = displacement of 3H-CP55940, human CB1 transfected cells, radioligand 3H-CP55940, Table 3
[11] = displacement of 3H-SR141716A, human CB1 transfected cells, radioligand 3H-SR141716A, Table 3
[12] = human CB1 transfected cells, radioligand 3H-CP55940, Table 3
[13] = human CB1 transfected cells, radioligand 3H-SR141716A, Table 3
[14] = human CB1 transfected cells, radioligand 3H-WIN55212-2, Table 3
[15] = read-out: Ki, displacement of 3H-CP55940, human CB2 transfected cells

Row | Compound | Emax, GTP-γ-[35S] in Whole Rat Brain [1, 2] | EC50 [1, 3] | Max. Disp. %, 3H-SR141716A (CB1 receptor; [5]) | Max. Disp. %, 3H-CP55940 (human CB2 receptor; human CB2 transfected cells) | Ki (CB1 receptor; [7]) | Max. Disp. %, 3H-CP55940 (CB1 receptor; [8]) | Emax [1, 2] | Ki (CB1 receptor; [9]) | Ki (human CB2 receptor; [15]) | other results
1 | Cc1c(C(=O)NC(C)CO)nn(-c2ccc(Cl)cc2Cl)c1-c1ccc(Cl)cc1 (single isomer, unassigned) [MF9725-105-38] | −83.8 | 294000 nM | 96.8% | 47.5% |  |  |  |  |  | Ki (CB1 receptor; Ki, displacement of 3H-CP55940, whole rat brain membranes, radioligand 3H-CP55940, Tables 1 and 2): 117 nM; Ki (CB1 receptor; [4]): 123 nM; Ki (human CB2 receptor; [6]): 5900 nM
2 | Cc1c(C(=O)NC(C)CO)nn(-c2ccc(Cl)cc2Cl)c1-c1ccc(Cl)cc1 (single isomer, unassigned) [MF9725-106-39] | −83.0 | 292000 nM | 100% | 52.1% | 117 nM | 89.7% |  |  |  | Ki (CB1 receptor; [4]): 99.8 nM; Ki (human CB2 receptor; [6]): 1770 nM
3 | CCNC(=O)c1nn(-c2ccc(Cl)cc2Cl)c(-c2ccc(Cl)cc2)c1C [MF9725-54C] |  | 30300 nM | 100% | 59.6% | 46.3 nM | 91.4% | -46.9% | 61.5 nM | 3110 nM | Ki (human CB1 receptor; [10]): 137 nM; Ki (human CB1 receptor; [11]): 35.1 nM; Ki (human CB1 receptor; displacement of 3H-WIN55212-2, human CB1 transfected cells, radioligand 3H-WIN55212-2, Table 3): 185 nM; Max. Disp. %, 3H-CP55940 (human CB1 receptor; [12]): 66.7%; Max. Disp. %, 3H-SR141716A (human CB1 receptor; [13]): 95.3%; Max. Disp. %, 3H-WIN55212-2 (human CB1 receptor; [14]): 78.8%
4 | CCCNC(=O)c1nn(-c2ccc(Cl)cc2Cl)c(-c2ccc(Cl)cc2)c1C [MF9725-55C] |  | 11100 nM | 100% | 68.3% | 29.9 nM | 97.4% | -35.7% | 23.6 nM | 2960 nM | Ki (human CB1 receptor; [10]): 33.7 nM; Ki (human CB1 receptor; [11]): 6 nM; Max. Disp. %, 3H-CP55940 (human CB1 receptor; [12]): 81.9%; Max. Disp. %, 3H-SR141716A (human CB1 receptor; [13]): 93.4%; Max. Disp. %, 3H-WIN55212-2 (human CB1 receptor; [14]): 73.3%
5 | CCCCCNC(=O)c1nn(-c2ccc(Cl)cc2Cl)c(-c2ccc(Cl)cc2)c1C [MF9725-67-17] |  |  | 100% | 75.9% | 11.4 nM | 91.4% |  | 6.83 nM | 1110 nM | EC50 ([1]; EC50, GTP-γ-[35S] in Whole Rat Brain, whole rat brain membranes, inverse agonist/antagonist activity): 5270 nM; Emax [1]: -7.4%; Ki (CB1 receptor; Ki, displacement of 3H-WIN55212-2, whole rat brain membranes, radioligand 3H-WIN55212-2, Tables 1 and 2): 12.6 nM; Max. Disp. %, 3H-WIN55212-2 (CB1 receptor; whole rat brain membranes, radioligand 3H-WIN55212-2, Tables 1 and 2): 94.4%; Max. Disp. %, 3H-CP55940 (human CB1 receptor): 87.1%; Max. Disp. %, 3H-SR141716A (human CB1 receptor): 89.9%; Max. Disp. %, 3H-WIN55212-2 (human CB1 receptor): 89.9%; Ki (human CB1 receptor; displacement of 3H-CP55940): 14.6 nM; Ki (human CB1 receptor; displacement of 3H-SR141716A): 6.35 nM; Ki (human CB1 receptor; displacement of 3H-WIN55212-2): 18.7 nM
6 | Cc1c(C(=O)NCCCO)nn(-c2ccc(Cl)cc2Cl)c1-c1ccc(Cl)cc1 [MF9725-94-31] |  | 241000 nM | 100% | 43.1% | 160 nM | 86.6% | -83.3% | 156 nM | 1250 nM | 
7 | Cc1c(C(=O)NCCCCO)nn(-c2ccc(Cl)cc2Cl)c1-c1ccc(Cl)cc1 [MF9725-95-31] |  | 304000 nM | 97.6% | 54.3% | 154 nM | 88.7% | -79.5% |  | 5720 nM | 
8 | Cc1c(C(=O)NN)nn(-c2ccc(Cl)cc2Cl)c1-c1ccc(Cl)cc1 [MF9879-34-8] |  |  | 85.9% | 80.8% | 374 nM | 68.4% | -71.7% | 602 nM | 12100 nM | EC50 ([1]; whole rat brain membranes, value above highest concentration tested (footnote), read-out: EC50, GTP-γ-[35S] in Whole Rat Brain, value is above highest concentration on displacement curve): ≥ 419000 nM
9 | SR144528 [reference compound] | −27.7 |  | 68.6% | 88.4% |  | 84.7% |  |  |  | Max. Disp. %, 3H-CP55940 (CB1 receptor; whole rat brain, 3H-CP55940, Table 4, parallel synthesis analogs, n = 1): 84.7%; Max. Disp. %, 3H-SR141716A (CB1 receptor; whole rat brain, 3H-SR141716A, Table 4, parallel synthesis analogs, n = 1): 68.6%
